Assay results published in patent US11795196B2, “Mitochondria-targeting peptides” (Stealth BioTherapeutics Corp., priority 2017, dated 2023).

Columns and labels:
[1] = test system: isolated rat hearts; test: Ischemia-reperfusion injury, Langendorff isolated heart preparation; settings: 30 min LAD occlusion + 120 min reperfusion, compound 1 μM in perfusion solution, mean
[2] = test system: rat; test: Rat Myocardial Infarction Model; format: in vivo; settings: s.c. 2×2 mg/kg, 30 min before ischemia and 5 min before reperfusion, 30 min LAD occlusion, 24 hours post-reperfusion, n=8
Protocol: The Rat Myocardial Infarction Model was performed by IPST Therapeutique Inc, Sherbrooke, Quebec, Canada. The animals were randomized in terms of even distribution between treatment groups based on their body weight by the Study Director with the aim of scheduling animal from each treatment group for each day of surgery (when possible). • 1) Sham group: size of the group: n=2. Route of administration: n/a; • 2) Vehicle group: size of the group: n=8. Route of administration: s.c.; • 3) Testing article group: size of the group: n=8. Route of administration: s.c.; Treatment dose: 2×2 mg/kg, 30 min before ischemia and 5 min before reperfusion. Experimental Procedures Study Design • 1) On the day of the surgery, the rat will be anaesthetized with a mixture of 2 to 2.5%. isoflurane USP (Abbot Laboratories, Montreal Canada) in oxygen, and placed on a heating pad to maintain body temperature. • 2) The animal will be intubated and immediately ventilated by means of a positive-pressure rodent respirator set at 10 mL/kg bodyweight at a frequency of 65-70 strokes/min. • 3) A baseline blood sample (1 mL) will be taken from the jugular vein for baseline biomarkers quantification. The blood will be collected in lithium heparin microtainers and centrifuged at 3000 rpm, at 4±2° C. for 10 minutes. The plasma will be aliquoted in 2 samples of equal volume (approximately 250 μL). […] A 1 mL blood sample will be taken from the jugular vein, for 24 hrs biomarkers quantification. • 11) The heart will be excised and mounted into a Langendorff apparatus. […]

[3] = test system: rat; test: Rat Acute Kidney Injury (AKI) Model, renal ischemia-reperfusion; format: in vivo; design: concentration or dose not given beside the values; settings: 30 minutes renal artery occlusion of both kidneys, 24 hours after reperfusion, relative to vehicle
Protocol: The Rat Acute Kidney Injury (AKI) Model was performed by IPST Therapeutique Inc, Sherbrooke, Quebec, Canada. The animals were randomized in terms of even distribution between treatment groups based on their body weight by the Study Director with the aim of scheduling animal from each group at each day of surgery. The rats will be given free access to food and water. Experimental Procedures Induction of Ischemia-Reperfusion • 1. Rats will be anaesthetized with isoflurane USP (Abbot Laboratories, Montreal Canada) 2% in oxygen and placed on a heated pad to maintain body temperature. The ECG and oxygen saturation will be monitored for the entire surgical process. The body temperature will be monitored with a probe thermometer introduced into the abdomen, very close to the kidneys. • 2. A 1 mL blood draw will be taken from the jugular vein. The blood will be collected into lithium heparin tubes and centrifuged at 3000 rpm for 10 min. to obtain the plasma. The plasma will be separated into 200 μL aliquot and stored at −20° C. until dosage of biomarkers. • 3. The abdomen will be disinfected with providone iodine and alaparotomy will be performed. • 4. The kidneys will be exposed and a temporary suture will be placed around renal artery of the two kidneys. Renal ischemia will be visually confirmed by a gradual changed of the kidneys colour going from red to dark purple within a couple of minutes following the start of the ischemia. During the ischemia, the kidneys will be kept moist and warm using a heat lamp and sterile gauze soaked in warm (37° C.) saline. The temperature will be monitored with a probe thermometer introduced into the abdomen, very close to the kidneys. • 5. After 30 minutes of occlusion, the suture will be removed. • 6. The abdominal wounds will be closed with 4-0 silk suture, and the animal will be return to its cage. • 7. Twenty-four hours after reperfusion the rats will be re-anesthetized. A second blood draw will be taken as was done before the ischemia. • 8. Sham will be treated under same conditions as vehicle, except, kidneys will not be subjected to ischemic conditions. Detection of Biomarkers A 200 μL aliquot of plasma sample will be taken before the ischemia and 24 hours following the ischemia; both will be sent to the clinical laboratory of the CHUS (Centre Hospitalier Universitaire de Sherbrooke, Quebec, Canada) for detection of plasma level of creatinine (p.Cr) and Blood Urea Nitrogen (BUN). Computer Systems The following are the validated computer systems to be used during the conduct of this study. The analysis software will be Microsoft Office Excel 2007 installed on networked personal computers running Microsoft Windows8, XP Professional or Vista. Data Analysis Values are presented as means±SEM (standard error of the means) and presented by the symbol+on the graph. Repeat un-paired Student's t-tests were performed in Microsoft Excel 2007 on all experimental data. Differences were considered significant when p≤ 0.05. The vehicle group was compared to the sham group while the test article was compared to the vehicle group. The plasma creatinine post-UR (% mean of vehicle) was calculated using the following formula:
[formula] Where: p.Cr=Plasma creatinine Mean Δ plasma creatinine in sham group=Mean (plasma creatinine 24 h post-isch.−plasma creatinine pre-isch.) in sham group Mean Δ plasma creatinine in vehicle group=Mean ((plasma creatinine 24 h post-inch.−plasma creatinine pre-isch.)−Mean Δ plasma creatinine in sham group) in vehicle group The BUN post-I/R (% mean of vehicle) was calculated using the following formula:
[formula] […]

[4] = 3H D-Arg-DMT-Lys-Phe-NH2 displacement filtration binding assay; settings: rat heart homogenate, 3H D-Arg-DMT-Lys-Phe-NH2 6-8 nM; range the pharmacological standard had to stay in (quality control)
Protocol: 1) Radioligand Displacement Methods and Procedures
1.1 Rat Heart Homogenate Preparation
Aptuit is committed to the highest standards of animal welfare and is subject to legislation under the Italian Legislative Decree no. 26/2014. All studies were conducted in accordance with national legislation and under authorization issued by the Italian Ministry of Health. The rat heart homogenate aliquots were prepared according to the following procedure. Hearts from 20 Sprague Dawley male rats were dissected out and quickly frozen at −80° C. On the day of homogenate preparation, hearts were thawed at 4° C. Groups of 2 hearts in 2 volumes of ice cold 20 mM HEPES, 1 mM EDTA, pH 7.4 buffer were homogenized with the GentleMACS dissociator (Miltenyi Biotec) using the D02 protocol. The final suspension of 20 hearts was divided in 4 aliquots with additional ice cold buffer up to 200 mL for each tube, homogenized with a Polytron and centrifuged at 24,000g for 40 min at 4° C. (T21 Sorvall, Rotor SL0250T, 13,500 rpm). For each tube, the supernatant was discarded, and the pellet resuspended with 100 mL of ice cold buffer, homogenized and centrifuged. This step was repeated twice. The final pellets were collected together in one tube with 70 mL of buffer. […] The protein content, measured with the Bradford (Bio-Rad) method using BSA as standard was 6.15 mg/mL. […]

Molecule	Infarct size, % of area at risk [1]	White Necrotic Area, % of area at risk ([1]; only white necrotic tissue)	Infarct size (%), Mean [2]	BUN, % Protection, Mean [3]	Plasma Creatinine, % Protection, Mean [3]	pIC50, high affinity value of the unlabeled SBT-031 displacement curve [4]
Cc1cc(O)cc(C)c1C[C@H](NC(=O)[C@H](N)CCCNC(=N)N)C(=O)N[C@@H](CCCCN)c1nc(Cc2ccccc2)no1 [Example 31, (R)-2-amino-N-((S)-1-(((S)-5-amino-1-(3-benzyl-1,2,4-oxadiazol-5-yl)pentyl)amino)-3-(4-hydroxy-2,6-dimethylphenyl)-1-oxopropan-2-yl)-5-guanidinopentanamide]	35%	22%	16.4%	81.4%	86.2%	–
D-Arg-DMT-Lys-Phe-NH2 [SBT-031]	–	–	–	–	–	7.6±0.5
